Results as given in patent EP2739618B1, “QUINAZOLINE COMPOUNDS AS SERINE/THREONINE KINASE INHIBITORS” (Array Biopharma, Inc., priority 2011, dated 2013).

How the values were obtained:
HCT116 cells = experiment: Cell Proliferation/Viability Assay (Cell Titer-Blue); type: cell-based; details: Homo sapiens, HCT-116, 3-day (72-hour) incubation, single assay or mean of multiple assays
Description: Cell Proliferation/Viability Assay
Viable cells after a 3-day (72-hour) incubation with ERK compounds were quantified using the Cell Titer-Blue Cell Viability Assay from Promega.
Materials and Methods: HCT116 cells were plated in 96 well micro-plates at a density of 1,000 cells/well. The cells were allowed to attach to micro-plate overnight at 37 °C/5% CO2. After overnight attachment, diluted compounds were then added to the cells at a final concentration of 0.5% DMSO. After 3 days (72 hours) at 37 °C/5% CO2, the number of viable cells was determined using the Cell Titer-Blue Cell Viability Assay from Promega. Briefly, Cell Titer-Blue reagent were added to the cells and incubated for 1 hour. Fluorescence (560nmexcitation/590nmemission) was then read using a fluorescence micro-plate reader. Background from high concentration Erk-inhibited wells was subtracted. Representative data is in TABLE III (infra). The reported IC50 may be from a single assay or the mean of multiple assays.

[1] = system: PMA-stimulated P90RSK(Ser380) phosphorylation; experiment: Cellular P90RSK(Ser380) Phosphorylation Assay; type: cell-based; details: Homo sapiens; HepG2 cells, 1.5 h compound incubation, PMA 100ng/mL 30 min, normalized to GAPDH signal; single assay or mean of multiple assays
Description: Cellular P90RSK(Ser380) Phosphorylation Assay
Inhibition of PMA-stimulated P90RSK(Ser380) phosphorylation was determined by the following in vitro cellular mechanistic assay, which comprises incubating cells with a compound for 1.5 h and quantifying fluorescent pP90RSK(Ser380) signal on fixed cells and normalizing to GAPDH signal.
Materials and Methods: HepG2 cells were obtained from ATCC and grown in DMEM supplemented with 10% fetal bovine serum. Cells were plated in 96-well plates at 35,000 cells/well and allowed to attach overnight at 37 °C/5% CO2. Diluted compounds were then added at a final concentration of 0.5% DMSO. After 1.5 h compound incubation, cells were stimulated with the addition of PMA (phorbol 12-myristate 13-acetate) at a final concentration of 100ng/mL; the PMA stimulation was a 30-min incubation at 37 °C/5% CO2. After the 30-minute PMA stimulation, cells were washed with PBS and fixed in 3.7% formaldehyde in PBS at room temperature for 15-20 min. This was followed by another wash in PBS and then permeabilization in 100% MeOH at room temperature for 10-15 min. Following the permeabilization incubation, cells were washed in PBS/0.05% Tween-20, followed by a block in Odyssey blocking buffer (LI-COR Biosciences) for at least 1 hour. Antibodies to phosphorylated P90RSK(Ser380) (Cell Signaling #9335, rabbit monoclonal) and GAPDH (Fitzgerald 10R-G109a, mouse monoclonal) were added to the cells and incubated overnight at 4 °C. pP90RSK(Ser380) antibody was used at a 1:250 dilution; GAPDH was used at a 1:10,000 dilution. After washing with PBS/0.05% Tween-20, the cells were incubated with fluorescently-labeled secondary antibodies (Anti-rabbit-Alexa Flour680, Invitrogen Cat#A21109; Anti-mouse-IRDye800CW, Rockland Inc. Cat#610-131-121) for 1 h. Both secondary antibodies were used at a 1:1000 dilution. Cells were then washed and analyzed for fluorescence at both wavelengths using the Odyssey Infrared Imaging System (LI-COR Biosciences). Phosphorylated P90RSK(Ser380) signal was normalized to GAPDH signal. Representative data is in TABLE III (infra). The reported IC50 may be from a single assay or the mean of multiple assays.

[2] = biological target: T1, human ERK-2 (Mitogen Activated Kinase 1) (Homo sapiens, UniProt P28482); experiment: ERK-2 Enzymatic Assay; type: biochemical; details: 5nM ERK-2 enzyme, 25µM ATP, S/T17 peptide substrate, single assay or mean of multiple assays
T1 construct: N-terminal 6-His fusion protein in E. coli and corresponding to aa 8-360; 6-His (N); made in house; host or cells: E. coli
Description: Compounds were tested in an enzymatic assay using human ERK-2 (Mitogen Activated Kinase 1), recombinantly expressed as an N-terminal 6-His fusion protein in E. coli and corresponding to aa 8-360. The substrate used was the fluorescent Omnia peptide S/T17 (Invitrogen of Carlsbad, CA; Cat. KNZ1171C). Test compounds were diluted in DMSO in 3-fold serial dilutions at 100x final concentrations. […] The assay was run at ambient temperature in a white 384-well polypropylene plate (Nunc, Inc of Naperville, IL; Cat. 267462) collecting data every 50 seconds for approximately 30 minutes on an Envision plate reader (PerkinElmer, Inc. of Waltham, MA); Excitation 340 nm/Emission 495 nm. The data collected from each well was fit to a straight line and the resulting rates were used to calculate percent of control. Percent of control was plotted against compound concentration and IC50 values were determined using a four-parameter fit. Representative data is in TABLE I and TABLE II. The reported IC50 may be from a single assay or the mean of multiple assays.

T1 sequence (P28482 8-360): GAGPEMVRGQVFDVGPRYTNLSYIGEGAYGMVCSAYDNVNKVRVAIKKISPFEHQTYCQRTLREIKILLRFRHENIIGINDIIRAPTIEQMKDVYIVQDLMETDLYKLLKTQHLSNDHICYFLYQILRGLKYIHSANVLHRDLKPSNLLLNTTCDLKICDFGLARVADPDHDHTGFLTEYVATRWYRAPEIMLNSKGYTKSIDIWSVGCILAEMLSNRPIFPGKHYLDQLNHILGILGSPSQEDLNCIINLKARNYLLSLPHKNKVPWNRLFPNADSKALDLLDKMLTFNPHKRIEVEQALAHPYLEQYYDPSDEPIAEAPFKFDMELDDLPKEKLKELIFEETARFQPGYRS

IC50 ([2]; TABLE II) [nM] | Compound | IC50 [1] [nM] | also measured
 | C[C@@H](CO)Nc1ncc2ccc(C(=O)N[C@H](c3ccc(Cl)c(F)c3)c3cnn(C)c3)cc2n1 (stereo in doubt) [Compound I-14, 2-((S)-2-hydroxy-1-methyl-ethylamino)-quinazoline-7-carboxylic acid [(R)-(4-chloro-3-fluoro-phenyl)-(1-methyl-1H-pyrazol-4-yl)-methyl]-amide] | 59.8 | IC50 (HCT116 cells): 875 nM
 | C[C@H](Nc1ncc2ccc(C(=O)N[C@@H](c3ccc(Cl)c(F)c3)[C@@H]3CCCN3)cc2n1)C(F)(F)F [Compound I-40, 2-((S)-2,2,2-trifluoro-1-methyl-ethylamino)-quinazoline-7-carboxylic acid [(S)-(4-chloro-3-fluoro-phenyl)-(S)-pyrrolidin-2-yl-methyl]-amide] | 2900 | IC50 ([2]; TABLE I): 7.3 nM
 | Cn1cc([C@@H](NC(=O)c2ccc3cnc(NC4CCOCC4)nc3c2)c2ccc(OC(F)F)cc2)cn1 [Compound I-41, 2-(tetrahydropyran-4-ylamino)-quinazoline-7-carboxylic acid [(S)-(4-difluoromethoxy-phenyl)-(1-methyl-1H-pyrazol-4-yl)-methyl]-amide] | 115 | IC50 ([2]; TABLE I): 0.55 nM
 | Cn1cc([C@@H](NC(=O)c2ccc3cnc(N[C@@H]4CCO[C@H](CO)C4)nc3c2)c2ccc(Cl)c(F)c2)cn1 [Compound I-47, N-((S)-(4-chloro-3-fluorophenyl)(1-methyl-1H-pyrazol-4-yl)methyl)-2-((2S,4R)-2-(hydroxymethyl)tetrahydro-2H-pyran-4-ylamino)quinazoline-7-carboxamide] | 29 | IC50 ([2]; TABLE I): 1.4 nM
 | COc1ccc([C@H](NC(=O)c2cc(F)c3cnc(NCC4CC4)nc3c2)c2cnn(C)c2)cc1F [Compound I-60, 2-(Cyclopropylmethyl-amino)-5-fluoro-quinazoline-7-carboxylic acid [(S)-(3-fluoro-4-methoxy-phenyl)-(1-methyl-1H-pyrazol-4-yl)-methyl]-amide] | 334 | IC50 ([2]; TABLE I): 6 nM
 | COc1ccc([C@H](NC(=O)c2cc(F)c3cnc(N[C@@H]4CCOC4)nc3c2)c2cnn(C)c2)cc1F [Compound I-61, 5-Fluoro-N-((S)-(3-fluoro-4-methoxyphenyl)(1-methyl-1H-pyrazol-4-yl)methyl)-2-((R)-tetrahydrofuran-3-ylamino)quinazoline-7-carboxamide] | 66 | IC50 ([2]; TABLE I): 2 nM
 | COc1ccc([C@H](NC(=O)c2cc(F)c3cnc(NC4(C)COC4)nc3c2)c2cnn(C)c2)cc1F [Compound I-64, 5-Fluoro-2-(3-methyl-oxetan-3-ylamino)-quinazoline-7-carboxylic acid [(S)-(3-fluoro-4-methoxy-phenyl)-(1-methyl-1H-pyrazol-4-yl)-methyl]-amide] | 978 | IC50 ([2]; TABLE I): 6 nM
 | COc1ccc(C(NC(=O)c2ccc3cnc(NC4CCOCC4)nc3c2)c2cnn(CCO)c2)cc1F (stereo not drawn) [Compound I-67, N-((3-fluoro-4-methoxyphenyl) (1-(2-hydroxyethyl)-1H-pyrazol-4-yl)methyl)-2-(tetrahydro-2H-pyran-4-ylamino) quinazoline-7-carboxamide] | 165 | IC50 ([2]; TABLE I): 5 nM
13 | COc1ccc([C@H](NC(=O)c2ccc3cnc(NC4CSC4)nc3c2)c2cnn(C)c2)cc1F [II-5] | 50.5 | 
 | COc1ccc([C@H](NC(=O)c2cc(F)c3cnc(N[C@H]4CC[C@H](O)CC4)nc3c2)c2cnn(C)c2)cc1F [II-13] | 84.4 | 
2.1 | COc1ccc([C@H](NC(=O)c2ccc3cnc(Nc4cc(C)nn4C)nc3c2)c2cnn(C)c2)cc1F [II-18] | 364 | 
3.1 | Cn1cc([C@@H](NC(=O)c2ccc3cnc(Nc4ccnn4C)nc3c2)c2ccc(Cl)c(F)c2)cn1 [II-25] | 19.9 | 
1000 | COc1ccc(C(NC(=O)c2cc(F)c3cnc(NC4CC5CC4CO5)nc3c2)c2cnn(C)c2)cc1F (stereo not drawn) [II-34] |  | 
61 | COc1ccnc(C(NC(=O)c2cc(F)c3cnc(NC4CCOCC4)nc3c2)c2cnn(C)c2)c1 (stereo not drawn) [II-35] |  | 
3.8 | COc1ccc([C@H](NC(=O)c2ccc3cnc(N[C@H]4CCOC[C@H]4F)nc3c2)c2ccnn2C)cc1F [II-36] |  | 
3.6 | COc1ccc([C@H](NC(=O)c2ccc3cnc(N[C@H]4CCOC[C@@H]4F)nc3c2)c2ccnn2C)cc1F [II-37] |  | 

IC50 ([2]; TABLE II) [nM] | Compound | IC50 [1] [nM] | also measured
2.9 | COc1ccc([C@H](NC(=O)c2ccc3cnc(Nc4ccnn4C)nc3c2)c2ccnn2C)cc1F [II-38] | 38 | 
151 | Cn1nccc1[C@@H](NC(=O)c1ccc2cnc(NC3CCOCC3)nc2c1)c1ccc(Cl)c(F)c1 [II-39] |  | 
26 | Cn1nccc1[C@@H](NC(=O)c1ccc2cnc(NC3CCOCC3)nc2c1)c1ccc(C#N)c(Cl)c1 [II-40] |  | 
5.2 | Cn1cc([C@@H](NC(=O)c2ccc3cnc(NC4CCOCC4)nc3c2)c2ccc(C(F)(F)F)c(F)c2)cn1 [II-41] |  | 
12.1 | Cn1cc(C(NC(=O)c2ccc3cnc(NC4CCOCC4)nc3c2)c2ccc(OC(F)F)cc2)cn1 (stereo not drawn) [II-43] |  | 
6.9 | O=C(N[C@@H](c1ccc(OC(F)(F)F)c(F)c1)C1CNCCO1)c1ccc2cnc(NC3CCOCC3)nc2c1 (stereo partly drawn) [II-45] |  | 
1.1 | COc1ccc([C@H](NC(=O)c2cc(F)c3cnc(NC4CCOCC4)nc3c2)c2cncn2C)cc1F [II-46] |  | 
1.3 | COc1ccc([C@H](NC(=O)c2cc(F)c3cnc(NC4CCOCC4)nc3c2)c2cnco2)cc1F [II-47] |  | 
1.4 | COc1ccc([C@H](NC(=O)c2cc(F)c3cnc(NC4CCOCC4)nc3c2)c2cnnn2C)cc1F [II-48] |  | 
85.5 | COc1ccc([C@H](NC(=O)c2cc(F)c3cnc(NC4CCOCC4)nc3c2)c2cn(C)cn2)cc1F [II-49] |  | 
59.1 | COc1ccc([C@H](NC(=O)c2cc(F)c3cnc(NC4CCOCC4)nc3c2)c2ncc[nH]2)cc1F [II-50] |  | 
164 | COc1ccc([C@H](NC(=O)c2cc(F)c3cnc(NC4CCOCC4)nc3c2)c2c[nH]c(C)n2)cc1F [II-51] |  | 
1.9 | COc1ccc([C@H](NC(=O)c2cc(F)c3cnc(NC4CCOCC4)nc3c2)c2nccn2C)cc1F [II-52] |  | 
1.5 | COc1ccc([C@H](NC(=O)c2cc(F)c3cnc(Nc4ccnn4C)nc3c2)c2cncn2C)cc1F [II-53] |  | 
8.5 | COc1ccc([C@H](NC(=O)c2cc(F)c3cnc(Nc4ccnn4C)nc3c2)c2nccn2C)cc1F [II-54] |  | 

Compound | IC50 ([2]; TABLE II) [nM] | IC50 [1] [nM] | also measured
Cn1nccc1Nc1ncc2ccc(C(=O)NC(c3ccc(Cl)c(F)c3)C3(F)CCNC3)cc2n1 (stereo not drawn) [II-42] | 34.6 |  | 
O=C(N[C@@H](c1ccc(OC(F)(F)F)c(F)c1)[C@H]1CCCNC1)c1ccc2cnc(NC3CCOCC3)nc2c1 [II-44] | 216 |  | 
